From ChEMBL document CHEMBL2069169, “Novel triazines as potent and selective phosphodiesterase 10A inhibitors” (Bioorg Med Chem Lett, 2012)
Active and inactive are the calls of the source. The rule behind the calls is not given here.

Legend:
[1] = Oral bioavailability in rat at 10 mg/kg; format: ADME, organism-based; settings: in vivo
[2] = tested on: Rattus norvegicus; assay: Antipsychotic activity in po dosed rat assessed as reduction of MK801-induced stereotyped sniffing; format: functional; set-up: Activity: scale not given: the % may be the effect or the level left; settings: for minimal effective dose: Rattus norvegicus, po, read-out: MED
[3] = tested on: Rattus norvegicus; assay: Antipsychotic activity in po dosed rat assessed as reduction of MK801-induced hyperactivity; format: functional; set-up: Activity: scale not given: the % may be the effect or the level left; settings: for minimal effective dose: Rattus norvegicus, po, read-out: MED
[4] = target: Phosphodiesterase 3 (Homo sapiens, UniProt Q14432+Q13370); assay: Inhibition of PDE3; format: protein assay
[5] = target: cGMP-specific 3',5'-cyclic phosphodiesterase (Canis lupus familiaris, UniProt O77746); assay: Inhibition of PDE5; set-up: species or system Homo sapiens
[6] = Volume of distribution at steady state in rat at 2 mg/kg, iv and 10 mg/kg, po; format: ADME, organism-based; settings: in vivo, read-out: Vdss
[7] = tested on: Rattus norvegicus; assay: Antipsychotic activity in Sprague-Dawley rat assessed as reduction of conditioned avoidance response at 0.17 mg/kg, po; format: functional, organism-based; set-up: dose 0.17 mg/kg
[8] = target: Phosphodiesterase 6; assay: Inhibition of PDE6; format: protein assay, Homo sapiens
[9] = Clearance in rat at 2 mg/kg, iv and 10 mg/kg, po; format: ADME, organism-based; settings: in vivo
[10] = tested on: Rattus norvegicus; assay: Antipsychotic activity in po dosed Sprague-Dawley rat assessed as reduction of conditioned avoidance response; format: functional
[11] = target: Phosphodiesterase 4 (Homo sapiens, UniProt P27815+Q08499+Q07343+Q08493); assay: Inhibition of PDE4; format: protein assay
[12] = Elimination half life in rat at 2 mg/kg, iv and 10 mg/kg, po; format: ADME, organism-based; settings: in vivo, read-out: beta t1/2 (converted)
[13] = AUC in rat plasma at 2 mg/kg, iv and 10 mg/kg, po; format: ADME, organism-based
[14] = AUC in rat brain at 2 mg/kg, iv and 10 mg/kg, po; format: ADME, organism-based
[15] = species: Homo sapiens; assay: Selectivity ratio of IC50 PDE2 to IC50 for human recombinant PDE10A
[16] = species: Homo sapiens; assay: Selectivity ratio of IC50 PDE4 to IC50 for human recombinant PDE10A
[17] = species: Homo sapiens; assay: Selectivity ratio of IC50 PDE3 to IC50 for human recombinant PDE10A
[18] = species: Homo sapiens; assay: Selectivity ratio of IC50 PDE6 to IC50 for human recombinant PDE10A
[19] = species: Homo sapiens; assay: Selectivity ratio of IC50 PDE5 to IC50 for human recombinant PDE10A
[20] = species: Homo sapiens; assay: Selectivity ratio of IC50 PDE8 to IC50 for human recombinant PDE10A
[21] = target: cGMP-dependent 3',5'-cyclic phosphodiesterase (Homo sapiens, UniProt O00408); assay: Inhibition of PDE2
[22] = species: Homo sapiens; assay: Selectivity ratio of IC50 PDE11 to IC50 for human recombinant PDE10A
[23] = species: Homo sapiens; assay: Selectivity ratio of IC50 PDE9 to IC50 for human recombinant PDE10A
[24] = species: Homo sapiens; assay: Selectivity ratio of IC50 PDE7 to IC50 for human recombinant PDE10A
[25] = target: cAMP and cAMP-inhibited cGMP 3',5'-cyclic phosphodiesterase 10A (Homo sapiens, UniProt Q9Y233); assay: Inhibition of human recombinant PDE10A-catalyzed cAMP hydrolysis
[26] = species: Homo sapiens; assay: Selectivity ratio of IC50 PDE1 to IC50 for human recombinant PDE10A

Chain of cAMP and cAMP-inhibited cGMP 3',5'-cyclic phosphodiesterase 10A (Q9Y233 whole entry): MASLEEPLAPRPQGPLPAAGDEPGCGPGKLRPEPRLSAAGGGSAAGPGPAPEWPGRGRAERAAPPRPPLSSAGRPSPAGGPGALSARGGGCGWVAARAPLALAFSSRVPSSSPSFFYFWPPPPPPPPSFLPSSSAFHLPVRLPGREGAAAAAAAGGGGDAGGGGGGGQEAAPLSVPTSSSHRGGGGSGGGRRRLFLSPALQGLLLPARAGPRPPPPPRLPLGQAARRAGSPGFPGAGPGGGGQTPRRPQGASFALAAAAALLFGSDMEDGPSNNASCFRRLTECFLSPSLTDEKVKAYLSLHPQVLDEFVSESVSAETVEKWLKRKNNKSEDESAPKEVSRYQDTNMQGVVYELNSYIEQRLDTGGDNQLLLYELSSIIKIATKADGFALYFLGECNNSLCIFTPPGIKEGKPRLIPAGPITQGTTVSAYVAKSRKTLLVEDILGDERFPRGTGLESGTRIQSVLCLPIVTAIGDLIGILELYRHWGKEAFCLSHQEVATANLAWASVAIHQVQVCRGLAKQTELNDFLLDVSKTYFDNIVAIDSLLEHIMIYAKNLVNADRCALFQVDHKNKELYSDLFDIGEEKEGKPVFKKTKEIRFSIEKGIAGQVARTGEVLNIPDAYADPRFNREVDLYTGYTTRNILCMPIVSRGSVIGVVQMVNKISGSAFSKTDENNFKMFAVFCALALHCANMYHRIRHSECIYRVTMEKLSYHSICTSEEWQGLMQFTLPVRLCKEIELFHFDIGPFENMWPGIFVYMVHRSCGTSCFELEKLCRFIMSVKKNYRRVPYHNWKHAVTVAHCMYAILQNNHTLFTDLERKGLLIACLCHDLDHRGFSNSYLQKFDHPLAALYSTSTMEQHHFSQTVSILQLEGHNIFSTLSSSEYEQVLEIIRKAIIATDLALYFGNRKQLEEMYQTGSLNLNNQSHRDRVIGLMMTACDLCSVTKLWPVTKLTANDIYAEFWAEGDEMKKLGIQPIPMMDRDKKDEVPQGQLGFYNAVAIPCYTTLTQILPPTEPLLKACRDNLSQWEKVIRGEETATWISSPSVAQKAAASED
Chain of cGMP-dependent 3',5'-cyclic phosphodiesterase (O00408 whole entry): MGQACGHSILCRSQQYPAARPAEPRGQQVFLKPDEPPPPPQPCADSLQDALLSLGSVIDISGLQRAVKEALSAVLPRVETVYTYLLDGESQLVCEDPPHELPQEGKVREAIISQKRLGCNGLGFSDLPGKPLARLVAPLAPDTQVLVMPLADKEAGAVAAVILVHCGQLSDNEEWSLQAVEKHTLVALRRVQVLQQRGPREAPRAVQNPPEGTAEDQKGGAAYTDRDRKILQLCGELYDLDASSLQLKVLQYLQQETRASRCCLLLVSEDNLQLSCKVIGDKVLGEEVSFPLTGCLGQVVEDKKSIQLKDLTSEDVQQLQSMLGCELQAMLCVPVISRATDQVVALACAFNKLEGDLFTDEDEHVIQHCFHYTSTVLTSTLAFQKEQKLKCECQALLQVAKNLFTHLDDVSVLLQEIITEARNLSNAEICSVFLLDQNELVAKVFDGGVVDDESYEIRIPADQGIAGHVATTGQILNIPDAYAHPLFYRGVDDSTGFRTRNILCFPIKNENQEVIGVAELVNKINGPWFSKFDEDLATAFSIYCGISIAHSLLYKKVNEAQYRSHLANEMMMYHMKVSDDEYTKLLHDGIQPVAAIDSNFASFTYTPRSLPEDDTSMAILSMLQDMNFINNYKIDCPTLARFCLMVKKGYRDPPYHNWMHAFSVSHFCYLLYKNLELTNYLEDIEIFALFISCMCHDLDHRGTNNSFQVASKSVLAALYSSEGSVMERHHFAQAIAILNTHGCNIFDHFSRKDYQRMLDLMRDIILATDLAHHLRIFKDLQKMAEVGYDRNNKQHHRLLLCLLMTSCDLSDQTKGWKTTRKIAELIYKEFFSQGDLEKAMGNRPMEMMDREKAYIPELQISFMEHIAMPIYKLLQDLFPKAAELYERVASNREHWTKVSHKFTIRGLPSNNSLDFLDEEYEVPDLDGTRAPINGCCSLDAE

| bioavailability [1] | IC50 [4] | IC50 [5] | Vd [6] | IC50 [8] | clearance [9] | IC50 [11] | half-life [12] | AUC [13] | AUC [14] | Ratio IC50 [15] | Ratio IC50 [16] | Ratio IC50 [17] | Ratio IC50 [18] | Ratio IC50 [19] | Compound | Activity [2] | minimal effective dose [2] | Activity [3] | minimal effective dose [3] | also measured |
| --- | --- | --- | --- | --- | --- | --- | --- | --- | --- | --- | --- | --- | --- | --- | --- | --- | --- | --- | --- | --- |
| 53% | > 10 µM | 2.29 µM | 1.3 L/kg | 1.79 µM | 5 mL/min/kg | > 10 µM | 4.5 h | 1600 ng·h/mL | 622 ng·h/mL | – | – | – | – | – | COc1cc(C(F)(F)F)cc2c1nnc1c(C)nc(-c3ccncc3C)n12 | 18.4% | 0.1 mg/kg | 40.5% | 0.1 mg/kg | Activity [7]: Active; ID30 [10]: 0.123 mg/kg; ED50 ([10]; Rattus norvegicus, Sprague-Dawley, po, read-out: ID50 (the source's name)): 0.204 mg/kg |
| 100% | > 10 µM | 4.95 µM | 0.4 L/kg | 1.24 µM | 13 mL/min/kg | > 10 µM | 0.9 h | 18700 ng·h/mL | 2780 ng·h/mL | 300 | – | – | – | – | COc1cc(OC)c2nnc3c(C)nc(-c4ccncc4C)n3c2c1 | 57.4% | 0.5 mg/kg | 71.7% | 0.5 mg/kg | – |
| – | > 10 µM | > 10 µM | – | > 10 µM | – | 3.68 µM | – | – | – | > 100 | > 100 | > 100 | > 100 | > 100 | COc1ccnc2c1nnc1c(C)nc(-c3ccncc3C)n12 | 34.1% | 2.5 mg/kg | 55.4% | 2.5 mg/kg | – |
| – | > 10 µM | > 5 µM | – | > 5 µM | – | 6.96 µM | – | – | – | > 100 | > 100 | > 100 | > 100 | > 100 | COc1ccnc2c1nnc1c(C)nc(-c3cccnc3C)n12 | – | – | – | – | Ratio IC50 [20]: > 500; IC50 [21]: 0.974 µM; Ratio IC50 [22]: > 500; Ratio IC50 [23]: > 500; Ratio IC50 [24]: > 500; IC50 [25]: 0.0124 µM; Ratio IC50 [26]: > 500 |
